“Also recorded” adds a separate entry of the source. No end group written: not given here.
Assays:
fibroblast line HT1080 = assay: Peptide binding assay, HT1080; type: cell-based; conditions: not shown
Description: (§1) Human umbilical cord venous endothelial cells (HUVEC) and EGM™ culture medium were from Clonetics, Walkersville, Md. Cells were cultivated in EGM with 5% fetal bovine serum (FBS) in flasks coated with 0.2% gelatin. The bEND.3 cells (ATCC) were cultured in Dulbecco's minimum essential medium (DMEM) (Invitrogen, Carlsbad, Calif.) supplemented with 10% FBS and 2 mM L-glutamine. The HT1080 cells were from ATCC and cultured in DMEM supplemented with 10% FBS, 2 mM L- glutamine, 1.5 g/L sodium bicarbonate, and 0.1 mM NEAA (Non-essential amino acids, Invitrogen, Carlsbad, Calif.). The ECV304 were from ATCC and cultured in DMEM, 10% FBS.
(§2) Analysis of synthetic peptide binding to cells was performed in 96 well plates. Cells (10^5) were plated into each well, incubated overnight then briefly fixed with cold ethanol for 10 seconds. Serial concentrations of peptide in 100 μl PBS were added and incubated at room temperature with gentle shaking for four hours. The wells were washed three times with PBS and reaction developed using strepavidin-peroxidase substrate (Vector, Burlingame, Calif.). The reactions were quantified at 405 nm in a plate reader (Molecular Devices, Sunnyvale, Calif.). In the inhibition assay, TIMP-2 protein was included with the peptide in the initial incubation.

ECV304 = assay: Peptide binding assay, ECV304; type: cell-based; conditions: not shown
Description: as §1, §2

HUVEC endothelial cells = assay: Peptide binding assay, HUVEC; type: cell-based, human; conditions: serial peptide concentrations, biotinylated synthetic peptides
Description: as §1, §2

[1] = system: TIMP-2 binding site on the surface of endothelial cells; assay: Inhibition of peptide binding by TIMP-2 protein; type: cell-based; conditions: purified TIMP-2 protein 0.05 μM, peptide 0.5 μM
Description: as §2

[2] = system: aortic endothelium of ApoE knockout mice; assay: Phage binding to aortic valves/endothelium (immunohistochemistry, confocal microscopy); type: in vivo
Description: (§3) Immunohistochemical analysis for binding was performed on frozen 5 micron sections of ApoE mouse atherosclerotic aortic valve and aorta on poly-L-lysine coated slides. Biotinylated peptide binding to aortic lesions was detected by strepavidin conjugated peroxidase and was developed with DAB substrate (Vector, Burlingame, Calif.). For endothelial identification, biotinylated […] was used and was detected with Texas red conjugated strepavidin. Phage staining was performed with rabbit anti-phage antibody followed by a fluorescein conjugated goat anti-rabbit antibody. The sections were analyzed by laser scanning confocal microscopy.
(§4) To observe phage or peptide association with atherosclerotic lesions, either phage carrying a homing peptide sequence or a circular synthetic peptide were injected into the mice via the tail vein. […] Fixation was in situ by perfusion with 4% paraformaldehyde. The aortas were dissected under a microscope, and the associated fat tissue cleaned while attached. The aorta was then longitudinally opened from aortic valve to iliac bifurcation. The detached aorta was pinned flat.

atherosclerotic lesions = assay: Biotinylated peptide binding in vivo to atherosclerotic lesions (aorta and sections); parameters: species or system atherosclerotic ApoE knockout mice
Description: as §3, §4
To verify that the peptidyl sequence CAPGPSKSC (SEQ ID NO:4) that is expressed on phage protein m was responsible for the selective localization to atherosclerotic lesions, a biotinylated peptide containing the core sequence CAPGPSKSC (SEQ ID NO:4) was synthesized, folded, disulfide bonds constituted by oxidization, and compositional validity established by mass spectrometry. The peptide was injected into atherosclerotic ApoE knockout mice via tail vein, and the tissues were fixed by in vivo perfusion, and aortas were freed by dissection. The binding of biotinylated peptide to the aorta was visualized with strepavidin conjugated peroxidase and DAB substrate.
The association of this peptide to the atherosclerotic lesions was also analyzed on tissue sections. The experiment was replicated in atherosclerotic ApoE mice by infusing CAPGPSKSC (SEQ ID NO:4) peptide and sections of the aorta were prepared, detected with strepavidin-conjugated peroxidase and developed with DAB substrate. Peptide binding to the surface of atherosclerotic lesions (FIG. 2B) was quite evident. […] These areas are likely involved in lesion formation and differ to some degree in their phenotype compared to that of the overlying endothelium.

[3] = system: human atherosclerotic lesions; assay: Biotinylated peptide binding to human vessel specimens
Description: The atherosclerotic regions of human vessels were similarly dissected and pinned on to the dissecting pan. These tissues were then incubated with refolded biotinylated peptides (10.0 μg/ml) overnight at 4° C. The samples were washed three times. An avidin-peroxidase conjugate was used as a second tier probe, and each specimen was visualized with DAB substrate.

[4] = non-diabetic insulin resistant monkeys; cited from earlier work
[5] = sections of aorta, atherosclerotic ApoE mice

| Compound | peptide binding to HT1080 cells (fibroblast line HT1080) | peptide binding to ECV304 (ECV304) | peptide binding to endothelial cells (absorbance at 405 nm) (HUVEC endothelial cells) | effect of TIMP-2 protein on peptide binding to cells [1] | also measured |
| --- | --- | --- | --- | --- | --- |
| CYNRSDGMC (A synthetic sequence from a combinatorial phage display library.) [SEQ ID NO:464, TIMP-2 homologous peptide] | dose dependent binding | dose dependent binding | dose dependent binding | inhibits binding; also recorded: competitively inhibited | – |
| CNQRHQMSC (A synthetic sequence from a combinatorial phage display library.) [SEQ ID NO:336, Eo3-112] | dose dependent binding | dose dependent binding | dose dependent binding | inhibits binding; also recorded: competitively inhibited | selectivity of localization for atherosclerotic lesion endothelium [2]: associates with a molecule present on both atherosclerotic and normal endothelial surfaces; also recorded: not entirely selective for atherosclerotic lesion endothelium |
| CAPGPSKSC (not fully specified (bridges); cysteine pairing not given here) [SEQ ID NO:4] | – | – | – | – | peptide binding to lesions of the aorta (atherosclerotic lesions; biotinylated synthetic peptide via tail vein, atherosclerotic ApoE knockout mice, streptavidin-peroxidase/DAB): like that of phage displaying the peptide; also recorded: replicated the CAPGPSKSC (SEQ ID NO:4) phage binding to the lesions; peptide binding to the surface of atherosclerotic lesions, tissue sections (atherosclerotic lesions; sections of aorta after infusion of peptide, atherosclerotic ApoE mice): quite evident; pattern of peptide binding within the lesion, tissue sections (atherosclerotic lesions; [5]): most intense in the endothelium overlying the atherosclerotic lesion; also recorded: bind more to the endothelium at the periphery of the lesions and less to the central aspect of the lesions; peptide signal outside the lesions, tissue sections (atherosclerotic lesions; [5]): no substantial signal was evident elsewhere; peptide binding to atherosclerotic lesion in human arterial specimen ([3]; biotinylated peptide 10.0 μg/ml on luminal surface, overnight 4° C., avidin-peroxidase/DAB): Bound peptide is apparent; also recorded: preferentially bound to the atherosclerotic plaque; peptide binding to non-atherosclerotic arterial samples or veins ([3]; human vascular samples, biotinylated peptide): no observable binding |
| Cc1cc(SCc2sc(-c3ccc(C(F)(F)F)cc3)nc2C)ccc1OCC(=O)O [GW501516] | – | – | – | – | increase of HDL-C [4]: 80%; increase of apoA-I [4]: 43%; triglyceride, LDL-C and insulin levels [4]: lowered |
| CNHRYMQMC (A synthetic sequence from a combinatorial phage display library.) [SEQ ID NO:344, Eo3-114] | dose dependent binding | dose dependent binding | dose dependent binding | inhibits binding; also recorded: competitively inhibited | – |
